BindingDB's records for doi:10.1021/acs.jmedchem.1c00742 (H. Lee Moffitt Cancer Center and Research Institute, 2021)

Target: T1, B-cell CLL/lymphoma 9 protein (Homo sapiens, UniProt O00512)
T1 sequence (O00512 whole entry): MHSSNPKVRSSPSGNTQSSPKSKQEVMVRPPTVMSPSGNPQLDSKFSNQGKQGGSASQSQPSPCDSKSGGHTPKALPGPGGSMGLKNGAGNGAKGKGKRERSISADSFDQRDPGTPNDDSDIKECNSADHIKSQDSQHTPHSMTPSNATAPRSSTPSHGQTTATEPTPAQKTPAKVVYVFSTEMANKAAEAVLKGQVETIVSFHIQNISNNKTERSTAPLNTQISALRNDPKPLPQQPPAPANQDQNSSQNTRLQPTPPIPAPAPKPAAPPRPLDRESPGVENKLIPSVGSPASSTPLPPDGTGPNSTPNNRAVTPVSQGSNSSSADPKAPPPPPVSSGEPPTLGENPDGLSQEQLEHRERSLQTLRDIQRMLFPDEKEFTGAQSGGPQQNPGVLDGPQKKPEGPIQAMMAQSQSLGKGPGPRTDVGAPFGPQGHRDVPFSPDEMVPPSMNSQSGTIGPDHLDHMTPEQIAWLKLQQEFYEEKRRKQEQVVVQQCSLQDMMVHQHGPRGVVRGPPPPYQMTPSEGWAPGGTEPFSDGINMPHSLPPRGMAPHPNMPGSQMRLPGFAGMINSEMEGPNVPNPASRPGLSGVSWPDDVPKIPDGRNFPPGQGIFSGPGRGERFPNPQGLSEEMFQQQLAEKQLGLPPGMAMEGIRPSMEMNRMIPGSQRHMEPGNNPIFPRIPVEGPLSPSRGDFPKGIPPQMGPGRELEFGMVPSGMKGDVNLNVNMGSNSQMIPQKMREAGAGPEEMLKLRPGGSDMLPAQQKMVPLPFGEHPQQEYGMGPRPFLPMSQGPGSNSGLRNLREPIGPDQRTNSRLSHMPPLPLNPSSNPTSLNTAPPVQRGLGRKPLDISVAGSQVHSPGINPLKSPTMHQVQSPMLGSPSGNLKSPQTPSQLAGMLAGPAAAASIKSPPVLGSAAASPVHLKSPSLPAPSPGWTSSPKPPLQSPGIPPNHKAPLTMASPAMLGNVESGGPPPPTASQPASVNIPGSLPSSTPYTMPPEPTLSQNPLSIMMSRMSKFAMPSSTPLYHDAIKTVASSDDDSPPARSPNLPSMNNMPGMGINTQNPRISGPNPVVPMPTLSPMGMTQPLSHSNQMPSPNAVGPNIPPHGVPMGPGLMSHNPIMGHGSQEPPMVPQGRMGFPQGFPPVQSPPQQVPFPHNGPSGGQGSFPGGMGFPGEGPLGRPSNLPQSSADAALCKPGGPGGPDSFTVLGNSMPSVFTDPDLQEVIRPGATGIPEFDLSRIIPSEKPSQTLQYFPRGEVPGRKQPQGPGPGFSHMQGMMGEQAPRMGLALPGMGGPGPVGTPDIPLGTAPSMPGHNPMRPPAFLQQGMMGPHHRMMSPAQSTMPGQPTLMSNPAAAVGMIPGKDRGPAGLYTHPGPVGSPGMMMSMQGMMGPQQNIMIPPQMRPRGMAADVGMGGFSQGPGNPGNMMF
Experiment: Competitive binding affinity to C-terminal 6-His-tagged beta-catenin (1 to 781 residues) (unknown origin) expressed in Escherichia coli BL21 (DE3)- N-terminal biotinylated human BCL9 (350 to 375 residues) assessed as apparent dissociation constant incubated for 2 hrs by AlphaScreen assay

Kd: 770 nM
SMILES: CC(C)(Oc1cccc(N2CCC[C@@H](C(=O)N(CCOCCOCCNC(=O)CCCC[C@@H]3SC[C@@H]4NC(=O)N[C@@H]43)Cc3ccc(-c4cn[nH]c4)cc3)C2)c1)C(=O)N1CCNCC1
